According to PMC6394474, “Evaluation of the effects of formulation, food, or a proton-pump inhibitor on the pharmacokinetics of glasdegib (PF-04449913) in healthy volunteers: a randomized phase I study” (Cancer Chemotherapy and Pharmacology, 2018):
“Also recorded” adds a separate entry of the source.

Assays:
[1] = parameters: method as in PMID 24900436; settings: unpublished; cited from earlier work
[2] = parameters: method as in PMID 29086063; settings: early maleate-salt tablet formulations, in the presence of PPIs, single 100-mg oral dose; cited from earlier work
Hedgehog pathway = test system: Hedgehog pathway; parameters: method as in PMID 28556364; settings: 50 mg QD dose; skin; cited from earlier work
[3] = Safety and tolerability: treatment-emergent adverse event monitoring in healthy subjects; type: in vivo, human
Method: Safety and tolerability of glasdegib were assessed by adverse event (AE) monitoring and changes in clinical laboratory results, ECGs, and physical examination findings. AEs were graded according to the Medical Dictionary for Regulatory Activities version 20.0.

[4] = Phase I single-dose plasma pharmacokinetics of glasdegib tablet formulations in healthy volunteers (HPLC-MS/MS, noncompartmental analysis); type: in vivo, human
Source text: This was a Phase I, randomized, open-label, three-period, four-sequence, four-treatment study in healthy volunteers. Subjects were randomized to one of four treatment sequences (Fig. 1). All subjects received three treatments with a washout period of at least 7 days between each administration period. The duration of each administration period was 6 days with the exception of PPI treatment, which was 12 days (including 6-day follow-up after glasdegib administration).
No food was allowed for at least 4 h after glasdegib dosing.
Following a 10-h fast, subjects consumed a recommended high-fat (~ 50% of total caloric content of the meal), high-calorie meal (~ 800 to 1000 calories with 150, 250, and 500–600 calories from protein, carbohydrate, and fat, respectively).
Following a 7-day washout period, rabeprazole 40 mg was administered daily for 7 days. On the day of PK sample collection (day 7 of rabeprazole administration), both rabeprazole and glasdegib were administered in the fasted state. Rabeprazole was administered 4 h before glasdegib. […]
The primary PK endpoints were AUCinf and Cmax of glasdegib. Additional PK endpoints were AUC from time 0 to the last quantifiable concentration (AUClast), time for Cmax (Tmax), plasma elimination half-life (t½), apparent oral clearance (CL/F), and apparent volume of distribution following oral dose (Vz/F).
Glasdegib plasma concentrations were determined at Covance Bioanalytical Services (Shanghai, China) using a validated, sensitive, and specific high-performance liquid chromatography–tandem mass spectrometric (HPLC–MS/MS) method. […]
Calibration curves were linear over the range of 3–3000 ng/mL for glasdegib in plasma, using a weighted (1/concentration^2) linear regression. The lower limit of quantification (LLOQ) of glasdegib was 3 ng/mL.
Glasdegib PK parameters were calculated using noncompartmental analysis of plasma concentration–time data. […] AUClast was determined using the linear/log trapezoidal method. […] The t½ was calculated as loge(2)/Kel, CL/F was calculated as dose/AUCinf, and Vz/F was calculated as dose/(AUCinf × Kel). […]

[5] = weakly basic drug; higher solubility at acidic pH; cited from earlier work
[6] = in the presence of a PPI (rabeprazole) vs fasted alone

SMILES: CN1CC[C@@H](NC(=O)Nc2ccc(C#N)cc2)C[C@@H]1c1nc2ccccc2[nH]1 [glasdegib]
- Biopharmaceutical Classification System class [1]: II or IV
- decrease in Cmax [2]: 13%
- increase in AUCinf [2]: 12%
- downregulation of the Hedgehog pathway (Hedgehog pathway): consistent downregulation
- deaths, serious AEs, severe AEs, dose reductions, discontinuations due to AEs ([3]; all treatment arms): no deaths, serious AEs, severe AEs, dose reductions, or permanent/temporary discontinuations due to AEs
- TEAEs reported across all treatment arms ([3]; human, in vivo): 17
- gastrointestinal disorders, share of all TEAEs ([3]; human, in vivo): 35%
- severity of observed TEAEs ([3]; human, in vivo): mild
- subjects with TEAEs across all treatment arms ([3]; human, in vivo): 12
- decrease in geometric mean AUCinf ([4]; high-fat, high-calorie meal vs fasted, single 100 mg oral dose): 16%
- change in geometric mean AUCinf [4, 6]: did not result in a change
- decrease in geometric mean Cmax [4, 6]: ~ 20%
- solubility (pH-dependent) [5]: drops substantially at pH ≥ 6.3; also recorded: decreasing solubility as pH increases
